# Experimental data taken from ChEMBL document CHEMBL4325858, “Quantitative and systems pharmacology 4. Network-based analysis of drug pleiotropy on coronary artery disease” (Eur J Med Chem, 2019).
# Biological target: T1, Prostaglandin G/H synthase 2 (Homo sapiens, UniProt P35354)
# T1 sequence (P35354 whole entry): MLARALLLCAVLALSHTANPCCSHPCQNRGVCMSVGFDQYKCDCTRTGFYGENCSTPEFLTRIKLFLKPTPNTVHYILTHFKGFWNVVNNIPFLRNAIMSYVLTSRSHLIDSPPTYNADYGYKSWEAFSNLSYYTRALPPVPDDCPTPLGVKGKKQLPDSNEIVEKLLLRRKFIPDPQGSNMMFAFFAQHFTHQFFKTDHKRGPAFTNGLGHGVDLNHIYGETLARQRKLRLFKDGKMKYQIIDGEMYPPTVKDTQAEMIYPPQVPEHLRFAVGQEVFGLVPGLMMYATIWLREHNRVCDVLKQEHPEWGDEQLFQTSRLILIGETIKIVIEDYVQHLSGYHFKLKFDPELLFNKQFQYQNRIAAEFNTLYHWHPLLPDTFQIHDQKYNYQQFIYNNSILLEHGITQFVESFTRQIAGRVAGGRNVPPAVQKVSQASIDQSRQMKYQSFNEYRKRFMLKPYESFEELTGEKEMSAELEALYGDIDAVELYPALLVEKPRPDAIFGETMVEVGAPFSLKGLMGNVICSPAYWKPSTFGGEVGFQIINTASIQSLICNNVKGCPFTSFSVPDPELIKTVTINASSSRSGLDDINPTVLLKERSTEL
# Test: Inhibition of recombinant human COX2 expressed in baculovirus infected Sf9 insect cells using arachidonic acid as substrate preincubated for 10 mins followed by substrate addition and measured after 10 mins by ELISA
compound,measurement,value
CCC(=O)NS(=O)(=O)c1ccc(-c2c(-c3ccccc3)noc2C)cc1 [PARECOXIB],IC50,5 nM
